According to patent publication US7049309B2, “3-Thia-4-arylquinolin-2-one potassium channel modulators” (Bristol-Myers Squibb Company, priority 2003, dated 2006):

Columns and labels:
[1] = test system: cloned mammalian (mSlo or hSlo) BK channels heterologously expressed in Xenopus oocytes; test: Assay for BK channel openers: two-electrode voltage clamp of BK-mediated outward current in Xenopus oocytes; format: cell-based; details: percent increase over BK current in controls, voltage step to +140 mV, IBTX-sensitive current
Experimental: The ability of the compounds of the invention to open BK channels and increase whole-cell outward (K^+) BK-mediated currents was assessed under voltage-clamp conditions by determining their ability to increase cloned mammalian (mSlo or hSlo) BK-mediated outward current heterologously expressed in Xenopus oocytes [Butler, A., et al., Science 1993, 261, 221–224; Dworetzky, S. I., et al., Mol. Brain Res. 1994, 27, 189–193; Gribkoff, V. K., et al., Mol. Pharmacol. 1996, 50, 206–217]. The two BK constructs employed represent nearly structurally identical homologous proteins, and have proven to be pharmacologically indistinguishable in our tests. To isolate BK current from native (background, non-BK) current, the specific and potent BK channel-blocking toxin iberiotoxin (IBTX) [Galvez, A., et al., J. Biol. Chem. 1990, 265, 11083–11090] was employed at a supramaximal concentration, e.g., 50–100 nanomolar (“nM”). The relative contribution of BK channel-mediated current to total outward current was determined by subtraction of the current remaining in the presence of IBTX (non-BK current) from the current profiles obtained in all other experimental conditions (control, drug, and wash) [Gribkoff, V. K. et al., Mol. Pharmacol. 1996, 50, 206–217]. […] All compounds were tested in 5–10 oocytes and are reported at the indicated concentration of 20 micromolar (“μM”) (or as otherwise indicated); the effect of the selected compounds of the invention on BK current was expressed as the percent of control IBTX-sensitive current at a single transmembrane voltage (+140 mV) and is listed in Table 1. Recordings were accomplished using standard two-electrode voltage clamp techniques [Stuhmer, W., et al., Methods in Enzymology, 1992, 207, 319–339]; voltage-clamp protocols consisted of 500–750 milliseconds (“ms”) duration step depolarizations, from a holding potential of −60 mV, to a final voltage up to +140 mV in 20 mV steps. The experimental media (modified Barth's solution) consisted of millimolar (“mM”): NaCl (88), NaHCO3 (2.4), KCl (1.0), HEPES (10), MgSO4 (0.82), Ca(NO3)2 (0.33), CaCl2 (0.41); pH 7.5.

[2] = test system: rat small intestine (ileum) segments; test: Rat small intestine (ileum) strip relaxation (nifedipine-sensitive force); design: species or system rat (Sprague Dawley); details: integral of nifedipine-sensitive force pre- and 30 min post-compound; compound concentration not given
Source text: The ability of the compounds of the invention to relax rat small intestine tissue as a model for the treatment of irritable bowel syndrome is described as follows. Male rats (Harlan, Sprague Dawley, 250–350 g) were sacrificed by decapitation. A portion of small intestine (ileum) was removed and the attached connective tissues and intestinal contents removed. The ileum was cut into segments of ≧1 cm in length. The segments were mounted longitudinally between fixed hooks in organ baths containing warm (37° C.) physiological salt solution (composition in mM: NaCl 118.4, KCl 4.7, KH2PO4 1.2, MgSO4 1.2, CaCl2 1.8, Glucose 10.1, NaHCO3 25; gassed with 95% O2/5% CO2, pH 7.4). A stable tension of ˜1.5 g was maintained in the tissue segments during the equilibration period of 45 minutes. Changes in muscle tension were measured with isometric force transducers (Grass, FT-03C) and recorded using AcqKnowledge data acquisition system (AcqKnowledge for MP100WS, Biopac Systems Inc., Goleta, Calif.). Compound or vehicle was added in the baths for 30 minutes. “Zero” active force was established at the end of the experiment using nifedipine (20 μM). The effects of compounds or vehicle on force was determined by measuring the integral of nifedipine-sensitive force (including resting tone and spontaneous contractions) pre- and 30 min post-compound (or vehicle) addition. Results are expressed as the percentage inhibition of force. DMSO vehicle inhibited force (integral) by −0.6±3.0% (n=25).

## COc1ccc(Cl)cc1-c1c(SCC(O)CN2CCC(O)C2)c(=O)[nH]c2ccc(C(F)(F)F)cc12 (stereo not shown) [Example 91, 4-(5-Chloro-2-methoxyphenyl)-3-[[2-hydroxy-3-(3-hydroxy-1-pyrrolidinyl)propyl]thio]-6-(trifluoromethyl)-2(1H)-quinolinone]
[1]; at 20 μM
  % MaxiK opening: 125%

## CN(C)CCCN(C)CC(O)CSc1c(-c2cc(Cl)ccc2O)c2cc(C(F)(F)F)ccc2[nH]c1=O (stereo not shown) [Example 87, 4-(5-Chloro-2-hydroxyphenyl)-3-[[3-[[3-(dimethylamino)propyl]methylamino]-2-hydroxypropyl]thio]-6-(trifluoromethyl)-2(1H)-quinolinone]
[1]; at 20 μM
  % MaxiK opening: 214%

## O=c1[nH]c2ccc(C(F)(F)F)cc2c(-c2cc(Cl)ccc2O)c1SCC(O)CN1CCOCC1 (stereo not shown) [Example 82, 4-(5-Chloro-2-hydroxyphenyl)-3-[[2-hydroxy-3-(4-morpholinyl)propyl]thio]-6-(trifluoromethyl)-2(1H)-quinolinone]
[1]; at 20 μM
  % MaxiK opening: 292%

## CN1CCN(CCC(O)CSc2c(-c3cc(Cl)ccc3O)c3cc(C(F)(F)F)ccc3[nH]c2=O)CC1 (stereo not shown) [Example 4, 4-(5-Chloro-2-hydroxyphenyl)-3-[[2-hydroxy-4-(4-methyl-1-piperazinyl)butyl]thio]-6-(trifluoromethyl)-2(1H)-quinolinone]
[1]; at 20 μM
  % MaxiK opening: 515%

## O=c1[nH]c2ccc(C(F)(F)F)cc2c(-c2cc(Cl)ccc2O)c1SCC(O)CN1CCCC1 (stereo not shown) [Example 81, 4-(5-Chloro-2-hydroxyphenyl)-3-[[2-hydroxy-3-(1-pyrrolidinyl)propyl]thio]-6-(trifluoromethyl)-2(1H)-quinolinone]
[1]; at 20 μM
  % MaxiK opening: 192%

## COc1ccc(Cl)cc1-c1c(SCC(O)CN2CCSCC2)c(=O)[nH]c2ccc(C(F)(F)F)cc12 (stereo not shown) [Example 90, 4-(5-Chloro-2-methoxyphenyl)-3-[[2-hydroxy-3-(4-thiomorpholinyl)propyl]thio]-6-(trifluoromethyl)-2(1H)-quinolinone]
[1]; at 20 μM
  % MaxiK opening: 97%

## COc1ccc(Cl)cc1-c1c(SCC(O)CN2CCC(C)CC2)c(=O)[nH]c2ccc(C(F)(F)F)cc12 (stereo not shown) [Example 107, 4-(5-Chloro-2-methoxyphenyl)-3-[[2-hydroxy-3-(4-methyl-1-piperidinyl)propyl]thio]-6-(trifluoromethyl)-2(1H)-quinolinone]
[1]; at 20 μM
  % MaxiK opening: 115%

## COc1ccc(Cl)cc1-c1c(SCC(O)CN2CCN(CCO)CC2)c(=O)[nH]c2ccc(C(F)(F)F)cc12 (stereo not shown) [Example 79, 4-(5-Chloro-2-methoxyphenyl)-3-[[2-hydroxy-3-[4-(2-hydroxyethyl)-1-piperazinyl]propyl]thio]-6-(trifluoromethyl)-2(1H)-quinolinone]
[1]; at 20 μM
  % MaxiK opening: 150%
[2]
  % inhibition of force (RSI strips): 10%

## CCN(CC)CC(O)CSc1c(-c2cc(Cl)ccc2O)c2cc(C(F)(F)F)ccc2[nH]c1=O (stereo not shown) [Example 74, 4-(5-Chloro-2-hydroxyphenyl)-3-[[3-(diethylamino)-2-hydroxypropyl]thio]-6-(trifluoromethyl)-2(1H)-quinolinone]
[1]; at 20 μM
  % MaxiK opening: 192%
[2]
  % inhibition of force (RSI strips): 46%

## CN(C)CCN1CCN(CC(O)CSc2c(-c3cc(Cl)ccc3O)c3cc(C(F)(F)F)ccc3[nH]c2=O)CC1 (stereo not shown) [Example 86, 4-(5-Chloro-2-hydroxyphenyl)-3-[[3-[4-[2-(dimethylamino)ethyl]-1-piperazinyl]-2-hydroxypropyl]thio]-6-(trifluoromethyl)-2(1H)-quinolinone]
[1]; at 20 μM
  % MaxiK opening: 124%

## COc1ccc(Cl)cc1-c1c(SCC(O)CN2CCN(C)CC2)c(=O)[nH]c2ccc(C(F)(F)F)cc12 (stereo not shown) [Example 102, 4-(5-Chloro-2-methoxyphenyl)-3-[[2-hydroxy-3-(4-methyl-1-piperazinyl)propyl]thio]-6-(trifluoromethyl)-2(1H)-quinolinone]
[1]; at 20 μM
  % MaxiK opening: 163%

## COc1ccc(Cl)cc1-c1c(SCC(O)CN2CCN(c3ncccn3)CC2)c(=O)[nH]c2ccc(C(F)(F)F)cc12 (stereo not shown) [Example 92, 4-(5-Chloro-2-methoxyphenyl)-3-[[2-hydroxy-3-[4-(2-pyrimidinyl)-1-piperazinyl]propyl]thio]-6-(trifluoromethyl)-2(1H)-quinolinone]
[1]; at 1 μM
  % MaxiK opening: 85^⋄ %

## O=c1[nH]c2ccc(C(F)(F)F)cc2c(-c2cc(Cl)ccc2O)c1SCC(O)CN1CCN(CCO)CC1 (stereo not shown) [Example 84, 4-(5-Chloro-2-hydroxyphenyl)-3-[[2-hydroxy-3-[4-(2-hydroxyethyl)-1-piperazinyl]propyl]thio]-6-(trifluoromethyl)-2(1H)-quinolinone]
[1]; at 20 μM
  % MaxiK opening: 287%
[2]
  % inhibition of force (RSI strips): 55%

## COc1ccc(Cl)cc1-c1c(SCC(O)CN2CCN(C(C)=O)CC2)c(=O)[nH]c2ccc(C(F)(F)F)cc12 (stereo not drawn) [Example 97, 4-Acetyl-alpha-[[[4-(5-chloro-2-methoxyphenyl)-1,2-dihydro-2-oxo-6-(trifluoromethyl)-3-quinolinyl]thio]methyl]-1-piperazineethanol]
[1]; at 20 μM
  % MaxiK opening: 192%

## O=c1[nH]c2ccc(C(F)(F)F)cc2c(-c2cc(Cl)ccc2O)c1SCC(O)CN1CCSCC1 (stereo not shown) [Example 85, 4-(5-Chloro-2-hydroxyphenyl)-3-[[2-hydroxy-3-(4-thiomorpholinyl)propyl]thio]-6-(trifluoromethyl)-2(1H)-quinolinone]
[1]; at 20 μM
  % MaxiK opening: 319%
[2]
  % inhibition of force (RSI strips): 40%
